Like-named read-outs stand apart in the source and are kept apart here. Marks after values point to notes of the source that are not given here.
Legend:
[1] = target: T1, AChE (mice brain homogenate) (Mus musculus, UniProt P21836); settings: cited from earlier work
T1 construct: a solution of AChE (1:9 w/v homogenate in 0.1 M phosphate buffer (PB), pH 7.4); from tissue; host or cells: mouse brain homogenate
T1 sequence (P21836 32-614): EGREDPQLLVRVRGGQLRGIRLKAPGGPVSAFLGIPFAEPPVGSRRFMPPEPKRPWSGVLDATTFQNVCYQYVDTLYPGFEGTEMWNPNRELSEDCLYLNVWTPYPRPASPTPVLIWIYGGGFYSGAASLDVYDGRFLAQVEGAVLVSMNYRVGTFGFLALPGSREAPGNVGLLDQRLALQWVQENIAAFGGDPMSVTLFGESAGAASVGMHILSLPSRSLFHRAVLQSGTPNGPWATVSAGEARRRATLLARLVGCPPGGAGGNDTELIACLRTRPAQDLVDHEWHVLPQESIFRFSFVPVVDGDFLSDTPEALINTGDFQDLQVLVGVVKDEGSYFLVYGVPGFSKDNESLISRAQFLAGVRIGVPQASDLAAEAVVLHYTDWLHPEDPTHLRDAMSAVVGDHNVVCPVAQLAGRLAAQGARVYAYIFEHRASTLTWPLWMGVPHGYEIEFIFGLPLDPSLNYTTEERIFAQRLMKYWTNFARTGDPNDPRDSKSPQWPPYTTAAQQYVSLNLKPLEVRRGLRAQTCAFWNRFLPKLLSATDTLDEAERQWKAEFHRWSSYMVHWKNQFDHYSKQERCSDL

[2] = target: T1, AChE (mice brain homogenate); experiment: In vitro AChE inhibition assay (Ellman's method); assay type: biochemical; settings: for Selectivity for AChE (IC50 for BChE divided by IC50 for AChE): mice serum BChE, (−)-meptazinol from values of ref 17
Method: (§1) Inhibitory activities of the compounds toward AChE and BChE were evaluated by Ellman’s method, employing mice brain homogenate as source of AChE and mice serum as source of BChE. […] After incubation for 20 min at 37 °C, Ellman’s reagent (300 µL, 5,5′-dithiobis(2-nitrobenzoic acid) (DTNB), 0.5 mM in 0.1 M PB, pH 7.4) and acetylthiocholine iodide (ATCh) (300 µL of 0.5 mM water solution) were added successively, and percent inhibition was determined by absorbance changes at 412 nm detected by UV spectrophotometry compared with control. BChE inhibition assay was similarly carried out using butyrylthiocholine iodide (BTCh) (0.5 mM) as the substrate and BChE (1:19 v/v serum in 0.1 M PB, pH 7.4) as the enzyme source.

mice brain AChE = settings: training set, read-out: Experimental IC50; cited from earlier work
[3] = cited from earlier work
rHuAChE = rHuAChE (Homo sapiens, UniProt P22303); experiment: Determination of the enzyme kinetic parameters Km and Vmax; assay type: biochemical; settings: for Type of AChE inhibition: Lineweaver–Burk plots, decreased Vmax, unvaried Km
rHuAChE, sequence (P22303 32-614): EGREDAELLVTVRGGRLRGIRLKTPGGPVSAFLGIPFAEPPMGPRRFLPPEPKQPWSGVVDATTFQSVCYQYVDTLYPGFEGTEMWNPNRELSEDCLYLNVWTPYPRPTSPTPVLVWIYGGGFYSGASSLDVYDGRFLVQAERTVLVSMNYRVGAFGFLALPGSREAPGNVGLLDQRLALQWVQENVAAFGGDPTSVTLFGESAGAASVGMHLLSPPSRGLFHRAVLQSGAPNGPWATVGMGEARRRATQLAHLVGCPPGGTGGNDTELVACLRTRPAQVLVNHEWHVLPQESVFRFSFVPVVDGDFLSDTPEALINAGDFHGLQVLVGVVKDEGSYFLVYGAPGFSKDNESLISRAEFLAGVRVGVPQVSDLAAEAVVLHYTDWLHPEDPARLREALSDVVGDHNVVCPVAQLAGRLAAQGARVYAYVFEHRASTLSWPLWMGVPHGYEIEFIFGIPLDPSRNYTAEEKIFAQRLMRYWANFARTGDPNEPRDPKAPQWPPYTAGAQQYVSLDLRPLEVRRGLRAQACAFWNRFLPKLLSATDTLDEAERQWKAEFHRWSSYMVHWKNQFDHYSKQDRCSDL
Method: 10 µL inhibitors of different concentrations and 50 µL rHuAChE enzyme solution of 0.5 U/mL were mixed and incubated for 20 min, then 75 µL of DTNB solution and 100 µL of ATCh solution (concentration ranging from 0.057 mM to 0.2 mM) were added to the mixture. Enzyme activity was determined right after ATCh was added by modified Ellman’s spectrophotometrical method. The Km and Vmax values for AChE inhibition were calculated by regression analysis of Lineweaver–Burk plots (1/velocity versus 1/[substrate]).

[4] = target: T2, rHuAChE immobilized on EDA CIM disk (Homo sapiens, UniProt P22303); experiment: Carbamoylation and decarbamoylation rate constants on AChE immobilized disk; assay type: biochemical; settings: for Kd: inhibitor 50 and 100 nM; for Carbamoylation half-time: inhibitor 50 nM
T2 sequence (P22303 32-614): as above
Method: The EDA CIM disk was first connected to a syringe pump and equilibrated with 10 column volumes (CV) of triple-distilled water and 10 CVs of 0.5 M Na-PB (pH 8.0). The flow rate was set at 0.5 mL/min. Then, the disk was activated by a 1% glutaraldehyde solution in PB (0.1 M, pH 7.4) (in the dark, 12 h, 4 °C). The activated disk was washed with 10 CVs of PB. 2 mL of rHuAChE in PB (10 U/mL) was then added into the column and left to react overnight (4 °C). The Schiff bases were reduced by 5 mL of 0.1 M sodium triacetoxyborohydride (STAB) in PB (2 h at room temperature) and 5 mL of 0.2 M monoethanolamine in PB (3 h at room temperature)[39]. The column was connected to the liquid chromatography system and equilibrated with a mobile phase consisting of 0.5 M NaCl and 10^−4 M DTNB in PB (buffer A) for 10 min. Reference enzyme activity was assessed by injecting 20 µL of saturating substrate (ATCh, 50 mM). The peak area was calculated and noted as A0. Then, the mobile phase was switched to the one containing selected concentrations of inhibitor (carbamoylation phase). Aliquots of 20 µL of saturating substrate were injected every 10–20 min and the time-dependent decreasing of peak area (Ai) was monitored down to a plateau. Once a constant plateau was reached, mobile phase was switched to buffer A again (decarbamoylation phase). Aliquots of substrate were kept injecting into the system to monitor the recovery of AChE activity over time. […] The experiment was carried out for two different concentrations of 42 and 43 (50 and 100 nM). The process of AChE carbamoylation and decarbamoylation is generally described as Scheme 1[40–42].
Calculation of ki and k3 was performed by applying Perola’s mathematical equation[43]. The affinity of the inhibitors toward the enzyme (KD) was calculated following Equation (1). (1) […]

BChE (mice serum) = target: T3, BChE (mice serum) (Mus musculus, UniProt Q03311); experiment: In vitro BChE inhibition assay (Ellman's method); assay type: biochemical; settings: read-out: IC50 ± SEM BChE
T3 construct: BChE (1:19 v/v serum in 0.1 M PB, pH 7.4) as the enzyme source; from tissue; host or cells: mouse serum
T3 sequence (Q03311 30-603): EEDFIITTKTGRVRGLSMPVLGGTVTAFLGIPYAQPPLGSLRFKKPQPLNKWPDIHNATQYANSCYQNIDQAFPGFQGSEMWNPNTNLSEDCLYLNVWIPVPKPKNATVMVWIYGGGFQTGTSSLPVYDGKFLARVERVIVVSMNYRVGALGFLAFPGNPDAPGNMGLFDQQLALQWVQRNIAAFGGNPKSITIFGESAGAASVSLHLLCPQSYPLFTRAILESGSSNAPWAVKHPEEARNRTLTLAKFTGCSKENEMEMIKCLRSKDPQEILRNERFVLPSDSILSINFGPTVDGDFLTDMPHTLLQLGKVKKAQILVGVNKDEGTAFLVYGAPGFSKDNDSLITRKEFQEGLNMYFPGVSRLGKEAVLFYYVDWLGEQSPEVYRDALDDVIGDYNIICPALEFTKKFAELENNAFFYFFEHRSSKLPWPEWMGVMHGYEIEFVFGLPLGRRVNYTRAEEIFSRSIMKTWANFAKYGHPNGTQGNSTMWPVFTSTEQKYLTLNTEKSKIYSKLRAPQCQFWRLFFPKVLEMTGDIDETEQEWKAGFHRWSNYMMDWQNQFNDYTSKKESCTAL
Method: as §1

Kunming mice = experiment: in vivo; settings: mice; as doses escalate
Method: (§2) Acute toxicity was evaluated in mice of both sexes (20–25 g Kunming mice from experimental animal center of Shanghai Jiao Tong University School of Medicine). All animals were housed in plastic cages with food and water ad libitum and maintained on a 12/12 h light/dark cycle at 22 ± 1 °C. […] Compounds 42 and 43 were dissolved in a 1:10 propylene glycol-normal saline mixture at 0.1 mol/L and then diluted to the final stepwise concentrations with normal saline. Each concentration of the compound was orally or intraperitoneally administered to a group of 10 animals. After two weeks of observation, the lethal rate for each group was measured. A 95% confidence interval for 42 or 43 after oral or intraperitoneal administration was calculated by Bliss method.

in vivo = settings: both, Kunming, mouse, in vivo
Method: as §2

[5] = test system: APP in SH-SY5Y-APP695 cells; experiment: Quantification of APP by high content screening; assay type: cell-based, human; settings: 16 h; for Reduction of intracellular APP level: 50 µM
Method: (§3) Human neuroblastoma SH-SY5Y cells transfected with wild-type APP695 gene (SH-SY5Y-APP695)[44] of 5 × 10^4/well (SH-SY5Y-APP695 kindly provided by Prof. Shengdi Chen, Ruijin Hospital, Shanghai Jiao Tong University School of Medicine) were plated in 200 µL culture medium (DMEM/F12, 10% Fetal Bovine Serum, 300 µg/mL G418, 100 U/mL penicillin + 100 µg/mL streptomycin) and incubated for 48 h at 37 °C in 5% CO2. Compounds 42 and 43 dissolved in culture medium were applied to the cells and incubated at 37 °C in 5% CO2 for 16 h. The cells were fixed and permeabilized. Mouse anti-APP monoclonal antibody N-terminus (MAB348, CHEMICON) and Goat anti-Mouse IgG conjugated to Alexa Fluor 555 were used as primary antibody and secondary antibody to detect APP while Hoechst Dye was used to stain nucleus simultaneously. KineticScan HCS System was employed to automatically find, focus, image, and analyze the cells on double-fluorescence channel guided by Target Activation Bioapplication. Fluorescence Unit of APP versus that of nucleus was used to evaluate the expression of APP, in order to balance the background.

[6] = test system: Aβ40/Aβ42 in SH-SY5Y-APP695 cells; experiment: Quantification of Aβ40/Aβ42 by ELISA in cell culture medium; assay type: cell-based, human; settings: for Reduction of Aβ42 level / Level of Aβ40: 50 µM; for Level of Aβ40: data not shown
Method: as §3
The cell culture medium was collected and added with phenylmethylsulfonyl fluoride (PMSF) to the final concentration of 0.1%. The concentration of Aβ40/Aβ42 in the medium was measured by Human/Rat βAmyloid (40/42) ELISA Kit Wako and calculated according to the standard line.

[7] = test system: APP in SH-SY5Y-APP695 cells; settings: 50 µM; cited from earlier work
[8] = test system: Aβ40/Aβ42 in SH-SY5Y-APP695 cells; settings: 50 µM; cited from earlier work
human serum BChE = settings: read-out: IC50 ± SEM BChE; cited from earlier work
[9] = test system: AChE from human erythrocytes; settings: human erythrocyte AChE; read-out: IC50 ± SEM AChE; cited from earlier work
[10] = target: T2, rHuAChE immobilized on EDA CIM disk; settings: cited from earlier work
[11] = dissociation (decarbamoylation) constant, Mean ± SD, n = 6
[12] = inhibit (carbamoylation) constant, Mean ± SD, n = 6
[13] = reference compound to verify the disk

CC[C@@]1(c2cccc(O)c2)CCCCN(C)C1 [(−)-Meptazinol]
IC50 [1]: 41000 nM | Selectivity for AChE (IC50 for BChE divided by IC50 for AChE) ([2]; mice brain AChE): 0.37

CCN(C)C(=O)Oc1cccc([C@H](C)N(C)C)c1 [Compound 14, Rivastigmine]
IC50 (mice brain AChE): […] | LD50 ([3]; p.o.): 3-6 (p.o.)^f mg/kg

CC[C@@]1(c2cccc(OC(=O)Nc3ccccc3)c2)CCCCN(C)C1 [Compound 43, (S)-3-(3-ethyl-1-methylazepan-3-yl)phenyl phenylcarbamate]
Type of AChE inhibition (rHuAChE): uncompetitive inhibition | Decrease of Vmax (rHuAChE; inhibitor 25 nM): 10% | Vmax-app (rHuAChE; inhibitor 25 nM): 17.84 µM/min | Decrease of Vmax (rHuAChE; inhibitor 50 nM): 25% | Vmax-app (rHuAChE; inhibitor 50 nM): 14.94 µM/min | IC50 [2]: 31.6 ± 3.5 nM | Times less potent than phenserine in AChE inhibition ([2]; against phenserine value of ref 22): 1.3 | Fold increase in inhibition of mice brain AChE compared with (−)-meptazinol ([2]; mice brain AChE): 1300 | Selectivity for AChE (IC50 for BChE divided by IC50 for AChE) ([2]; mice brain AChE): 2.1 | Kd ([4]; Mean ± SD, n = 6): 108 nM | k3 [4, 11]: (2.18 ± 0.12) × 10^−2 min^−1 | ki [4, 12]: (2.12 ± 0.46) × 10^5 M^−1min^−1 | Carbamoylation half-time [4]: 20.3 min | IC50 (BChE (mice serum)): 67.1 ± 23.7 nM | Peripheral cholinergic side effects observed (Kunming mice): salivation, twitch, and incontinence | LD50 (in vivo; ip): 45 mg/kg | LD50 (in vivo; po): 73 mg/kg | Decrease of APP level ([5]; 5 µM): 20.0% | Reduction of intracellular APP level [5]: 26.9% | Decrease of Aβ42 level ([6]; 5 µM, 16 h): 30.5% | Reduction of Aβ42 level ([6]; 16 h): 51.9% | Level of Aβ40 [6]: unchanged

CC[C@@]1(c2cccc(OC(=O)N(C)C)c2)CCCCN(C)C1 [Compound 42, (S)-3-(3-ethyl-1-methylazepan-3-yl)phenyl dimethylcarbamate]
Type of AChE inhibition (rHuAChE): uncompetitive inhibition | Decrease of Vmax (rHuAChE; inhibitor 100 nM): 18% | Vmax-app (rHuAChE; inhibitor 100 nM): 28.73 µM/min | Decrease of Vmax (rHuAChE; inhibitor 250 nM): 29% | Vmax-app (rHuAChE; inhibitor 250 nM): 24.70 µM/min | IC50 [2]: 6.93 ± 2.45 nM | AChE inhibitory potency relative to rivastigmine (times more potent) ([2]; mice brain AChE): about 790 | Fold increase in inhibition of mice brain AChE compared with (−)-meptazinol ([2]; mice brain AChE): 5900 | Selectivity for AChE (IC50 for BChE divided by IC50 for AChE) ([2]; mice brain AChE): 0.46 | Kd ([4]; Mean ± SD, n = 6): 30.2 nM | k3 [4, 11]: (1.35 ± 0.31) × 10^−2 min^−1 | ki [4, 12]: (4.47 ± 1.21) × 10^5 M^−1min^−1 | Carbamoylation half-time [4]: 23.5 min | IC50 (BChE (mice serum)): 3.17 ± 1.34 nM | Peripheral cholinergic side effects observed (Kunming mice): salivation, twitch, and incontinence | LD50 (in vivo; ip): 1.4 mg/kg | LD50 (in vivo; po): 12 mg/kg | Reduction of intracellular APP level [5]: 23.5% | Reduction of Aβ42 level ([6]; 16 h): 34.0% | Level of Aβ40 [6]: unchanged

CN1CC[C@@]2(C)c3cc(OC(=O)Nc4ccccc4)ccc3N(C)[C@@H]12 [Compound 5, Phenserine]
Decrease of APP level [7]: 40% | Decrease of total Aβ [8]: 31% | IC50 (human serum BChE): 1300 ± 85 nM | IC50 [9]: 24 ± 6 nM | LD50 ([3]; i.p.): 25 (i.p.)^i mg/kg

CNC(=O)Oc1ccc2c(c1)[C@]1(C)CCN(C)[C@@H]1N2C [Compound 1, (3aS)-(−)-physostigmine]
k3 [4, 13]: (1.94 ± 0.36) × 10^−2 min^−1 | ki [4, 13]: (4.78 ± 1.13) × 10^5 M^−1 min^−1 | Carbamoylation half-time [10]: 3.9 min | LD50 ([3]; p.o.): 4.5 (p.o.)^h mg/kg

— PMC6009976, “Pharmacophore-based design and discovery of (−)-meptazinol carbamates as dual modulators of cholinesterase and amyloidogenesis” (Journal of Enzyme Inhibition and Medicinal Chemistry, 2017)
